In test [1] the test system is Botrytis cinerea (isolate BcI16). The test is described as follows: Gray mold on attached leaves of tomato plants treated by spray or drench. Type of test: in vivo. Conditions: for B. cinerea infection (disease severity): 0.5 mM, spraying. As for the experimental part:
Tomato plants (tomato cultivar-Brigate) were grown from seeds in a nursery and transplanted into 1 liter pots at 40 to 50 days following seeding in an unheated greenhouse. Plants were fertilized proportionally with drippers 2-3 times per day with 5:3:8 NPK fertilizer (irrigation water was planned to have total N, P and K concentrations of 120, 30 and 150 mg/L, respectively; EC 2.2 dS/m), allowing for 25-50% drainage. Plants were maintained at 20-30° C. with natural light, and relative humidity of 50-90% in a pest- and disease-free greenhouse during the growth period and then transferred to an area where disease was allowed to develop following pathogen infection on intact leaves as described below.
Botrytis cinerea [Pers.:Fr. [Teleomorph: Botryotinia fuckeliana (de Bary) Whetzel] (isolate BcI16; [Swartzberg D. et al., Eur. J. Plant Pathol., 2008, 120:289-297])] was cultured on potato dextrose agar (PDA, Difco, Detroit, MI) in 90 mm diam. petri plates containing 15 ml PDA each and incubated at 20° C. The inoculum was maintained on PDA and transferred every two weeks. Gray mold conidia were harvested from 10 to 14 day-old cultures by agitating 1 cm^2 of agar bearing mycelium and conidia in a glass tube with tap water. The suspension was then filtered through cheesecloth. The concentration of conidia was determined using a haemocytometer and a light microscope, and adjusted to 5×10^5 conidia/ml. Since B. cinerea conidia need carbon and phosphate for germination and penetration, 0.1% glucose was added to the final conidial suspension together with 0.1% KH2PO4.
Plant attached tomato leaves were examined. Whole plants were kept in a humidity chamber at 22±1° C., 97±3% RH, and 1020 lux light intensity. Plants were infected by placing 10 μL drops of a 5×10^5 conidia/ml suspension, 5 drops/leaf (one drop on each leaflet), on two mature leaves.
Disease severity was evaluated on each plant using a pictorial key; 0=no infection (infection site is symptomless) and 100=all infection site fully covered by gray mold symptoms. The analyses were performed in the mentioned plants.
Phenylalanine treatment consisted of either spray or drench at concentrations of 0.5-4.1 mM administrated 3 and 0 days before infection with B. cinerea. Control plants were treated by water and kept under the same conditions as mentioned above.
Treatments in experiments were replicated 5 times. Replicates of each treatment were arranged randomly. Disease severity data in percentages were arcsin-transformed before further analysis. Disease severity data were analyzed using ANOVA and Fisher's protected LSD test and disease levels were statistically separated (P≤0.05) following a one-way analysis of variance.
Specifically, tomato plants were sprayed with increasing concentrations of Phe solutions (0.5-30 mM aquatic solution of Phe, no detergent) and percent disease severity was determined 11 days following treatment.

Test [2] concerns Sclerotinia sclerotiorum. The test is described as follows: Sweet basil plants in pots, white rot after mycelium disc inoculation. Type of test: in vivo. Conditions: 4.1 mM, spray or drench. As for the experimental part:
Phe concentration used was 4.1 mM. Results are presented by disease severity scoring of AUDPC (area under disease progress curve during 6 days after infection) where the severity is marked by units of rot diameter (mm) multiplied by the time of incubation.
Sweet basil plants in pots were treated with 4.1 mM Phe as described for tomato, and inoculated with a S. sclerotiorum mycelium disc from 4 days potato dextrose agar culture (White rot), related to botrytis, both being from the Ascomycota division.

Another test has as its system Pythium aphanidermatum. Put plainly: Cucumber plantlets, damping off disease after drench. Type of test: in vivo. Conditions: 4 mM drench. The procedure: Phe concentration used was 4 mM. Results are presented by the percentage of dead plants incidence (FIG. 9A). FIG. 9B: control treatment=lower row and Phe treatment=upper row.
Cucumber plantlets cv. Bet Alpha and grown in peat based growing medium were treated either by drenching 4 mM phenylalanine solution, 10 ml per pot containing 4 plants each. and the percent plantlets that survived was determined in each treatment. […] FIG. 9B presents two pots of each treatment; Pots in the lower row were not treated and pots in upper row were treated with 4 mM Phe.

Test [3] has as its system B. cinerea. Put plainly: Cut Ruscus branches drenched or dipped in Phe, leaves wounded and inoculated with B. cinerea. It counts as in vivo, Botrytis cinerea. The following applies: whole branches dipped for an hour in 6 mM. As for the experimental part: Ruscus branches serve as an ornamental decorative. These plants are very susceptible to Botrytis. Cut branches were treated with Phe either by drenching the tip of the cut branch in the Phe solution (FIG. 4B), or dipping the whole cut branch in Phe solution for an hour before dipping it in water and inoculating with botrytis. In both treatments the concentration used was 6 mM phenylalanine, and for the drenching treatment an additional concentration of 20 mM was added (FIG. 4A). For the dipping experiment 50 ppm T.O.G-6 was added to the Phe solution to prevent bacterial growth during the days of the experiment. Control branches were drenched in water and dipped in water with 50 ppm T.O.G-6. Ruscus leaves were wounded and inoculated with B. cinerea as described in the above Examples. Decay area (mm*2) results are presented as averages of 10 replications with each being a leaf from one of 10 branches±SE.

The subject of a further test is Alternaria alternata. The test is described as follows: Postharvest avocado fruit dip, inoculation with Alternaria alternata. It counts as in vivo. The following applies: avocado 'Ettinger', dip 30 seconds at 1-4 mM, 6 days post inoculation, 23° C. The procedure: FIG. 8 are images of avocado fruits of the cultivar ‘Ettinger’ dipped in water or 1 mM or 4 mM phenylalanine for 30 seconds and stored for one day at 5° C. Then the avocado fruit were inoculated by wounding at the fruit equatorial with […] of spore suspension of Alternaria alternata at the concentration of 10^5 conidia/ml at two sides of the fruit. The fruits were stored at 23° C. The decay area was monitored during 6 days post inoculation. Clearly, the fruit treated with Phe solutions, postharvest show
Avocado fruits of the cultivar ‘Ettinger’ were dipped in water or 1 mM or 4 mM phenylalanine for 30 seconds and stored for one day at 5° C. Then the avocado fruit were inoculated at the fruit equatorial with Alternaria alternata at the concentration of 10^5 conidia/ml at two sides of the fruit. The decay area was monitored during 6 days post inoculation, while incubation at 23° C.

The subject of test [4] is Botrytis cinerea strain BO-05. The test is described as follows: Detached petunia leaves dipped in Phe, wound inoculated with B. cinerea conidia. The following applies: 15 mM Phe dip, 7 days post inoculation, vs non-treated controls. It counts as in vivo. As for the experimental part:
Petunia (Petunia×hybrida) V26 variety, and a commercial white flowered cultivar (Dream White) cultivars were used. Petunia plants were grown as described in Oliva et al., (2015). Arabidopsis plants were grown as described in Tzin et al., (2012).
Conidia of Botrytis cinerea strain BO-05 were grown on PDA medium for 10 days. Conidia were gently collected from the plate in sterile water and were diluted to 10^6 conidia/ml. Fresh leaves of similar age and size of Petunia or Arabidopsis were detached from the plant, washed with water and placed in a humid chamber, under artificial light at 22° C. The upper side of the leaves was wounded (1-2 mm) and 5 μl drops of conidia suspension at a concentration of 10^6 conidia/ml were placed on the artificial wound. Decay diameter was measured following inoculation in specific days post inoculation (dpi) as detailed in the results.
Petunia leaves were dipped for 10 min in double distilled water with 0.02% Silwett L-77 surfactant supplemented either with 15 mM or 0 mM phenylalanine. Leaves were then placed in a humid box, and wound inoculated with B. cinerea was performed as described above.
In an independent experiment the decay diameter of detached leaves of wild type petunia (V26 cultivar) treated with 15 mM Phe or with […]. […]
Necrotic area was measured at 3, 4 and 7 days post inoculation (dpi). […]

For test [5], the system named is Plenodomus tracheiphilus syn Phoma tracheiphila. The test is described as follows: Lemon plants in pots, mal secco disease after leaf wounding and conidia infection. Type of test: in vivo. The following applies: 4 mM, drenching 10 ml per pot or spraying. The procedure: Phe concentration used was 4 mM. Results are presented by disease incidence of infection sites as percent resulting from drench treatment (lower FIG. 7A) and spray treatment (upper FIG. 7A)
Lemon plants in pots were treated with 4 mM Phe water solutions either by drenching 10 ml of solution per pot or spraying, as described for tomato. Infection was carried out by conidia suspension of Plenodomus tracheiphilus after leaf wounding by a needle. Disease incidence was evaluated according to the amount of successful infection sites on the infected leaves and presented as percent of infected leaves.

In test [6] the test system is B. cinerea. Put plainly: Whole petunia plants sprayed or pots drenched, leaves inoculated with B. cinerea. Conditions: for B. cinerea infection (decay area): 0.5 mM, spraying. Type of test: in vivo, Botrytis cinerea. As for the experimental part:
Inoculation with B. cinerea was performed 3 days after Phe treatment. In this case only one Phe treatment was performed however multiple treatments can be used e.g., first-three days prior to inoculation and a second one on the day of inoculation (data not shown but results are similar). 18 leaves were inoculated with B. cinerea, as described above. The plants were covered with a nylon bag and kept in the light and 22° C. (as above).
Commercial petunia plants (‘Dream Heaven’) were treated as described above in Example 3, either by spraying the plants (FIG. 3A) or drenching the pots (FIG. 3B), this time with increasing concentrations of Phe (6-50 mM).

Test [7] relates to Sclerotinia sclerotiorum. The test is described as follows: Tomato leaves, white rot after spray or drench treatment. Conditions: spray and drench, 4 mM. Type of test: in vivo. As for the experimental part: Phe concentration used was 4 mM. Results are presented by disease severity scoring of AUDPC (area under disease progress curve during 15 days after infection) where the severity is marked by units of rot area (mm^2) multiplied by the time of incubation.

As for `N[C@@H](Cc1ccccc1)C(=O)O` [Phe, Phenylalanine], in [1] (0.5 mM Phe with 0.01% Tween 80 vs without), the “effect of adding a surfactant on resistance to B. cinerea” value is “improved the effect of increased resistance”. Moreover, the “B. cinerea infection (disease severity)” value in [1] was “reduced B. cinerea infection”. The “disease severity (gray mold)” value in test [1] (drench to the root zone, 0.5 to 4.1 mM) is recorded as “reduced significantly”; in test [1] (sprayed on the plants, 1.0 to 4.1 mM) it was “reduced significantly”. For the same molecule, the duration of resistance entry in test [1] (spray, 20 and 30 mM (results not shown)) was “increased resistance for a longer period of time”. Moreover, the “disease symptoms (white rot)” value in the test with Sclerotinia sclerotiorum [2] was “significant reduction in disease symptoms”. Besides, in the test with Pythium aphanidermatum, the “tolerance to Pythium aphanidermatum (percentage of dead plants)” value is reported as “increased tolerance”. For the same molecule, in the test with B. cinerea [3], the “resistance to botrytis (decay area)” value is recorded as “increased resistance of the plants to botrytis significantly”. In the test with Alternaria alternata, the “area of brown spots” value is recorded as “reduced the area of brown spots caused by Alternaria alternata by four folds”. In addition, the diameter of decay entry in test [4] is reported as “significantly smaller”. Besides, the “resistance of the plant leaves to the fungus (disease incidence)” value in test [5] is listed as “increased the resistance”. In the test on B. cinerea [6] (petunia 'Dream Heaven', spray or drench, 6-50 mM), the “resistance of the plants to B. cinerea at higher concentrations” value is on record as “increased resistance”. In addition, in the test with B. cinerea [6] (petunia), the “B. cinerea infection (decay area)” value is on record as “reduced B. cinerea infection”. Besides, in the test with B. cinerea [6] (petunia, 35 and 50 mM, 7 days after spraying and 10 days after drenching), the decay area result is listed as “no increased decay area”. Also, the “degree of resistance, 4.1 mM compared with 6 mM” value in the test on B. cinerea [6] (whole petunia plants, 4.1 mM Phe vs 6 mM Phe) is “a little lower”. For the same molecule, the “tolerance to B. cinerea (decay area)” value with B. cinerea [6] (whole petunia plants, spraying or drenching, 6 mM, inoculation 3 days after treatment) was “Increases Tolerance”. In the test with Sclerotinia sclerotiorum [7], the “resistance of tomato leaves to white rot” value was “increase the resistance”.

Turning to `N[C@@H](Cc1ccc(O)cc1)C(=O)O` [Tyr, Tyrosine], the “B. cinerea infection (disease severity)” value in test [1] is recorded as “reduced B. cinerea infection”. Further, in the test with B. cinerea [6] (petunia), the “B. cinerea infection (decay area)” value is “reduced B. cinerea infection”.
